Molecules are shown by their SMILES.

One may read the EC50 as the concentration that produces a half-maximal response. A lower EC50 goes with a more potent agent.

For this test, the target named is Serine/threonine-protein kinase 33 (Homo sapiens, UniProt Q9BYT3). Kind of test: STK33 kinase inhibitors, dose response, biochemical, luminescence, cell-free, retest (AID 2821).
Sequence of Serine/threonine-protein kinase 33 (Q9BYT3 whole entry): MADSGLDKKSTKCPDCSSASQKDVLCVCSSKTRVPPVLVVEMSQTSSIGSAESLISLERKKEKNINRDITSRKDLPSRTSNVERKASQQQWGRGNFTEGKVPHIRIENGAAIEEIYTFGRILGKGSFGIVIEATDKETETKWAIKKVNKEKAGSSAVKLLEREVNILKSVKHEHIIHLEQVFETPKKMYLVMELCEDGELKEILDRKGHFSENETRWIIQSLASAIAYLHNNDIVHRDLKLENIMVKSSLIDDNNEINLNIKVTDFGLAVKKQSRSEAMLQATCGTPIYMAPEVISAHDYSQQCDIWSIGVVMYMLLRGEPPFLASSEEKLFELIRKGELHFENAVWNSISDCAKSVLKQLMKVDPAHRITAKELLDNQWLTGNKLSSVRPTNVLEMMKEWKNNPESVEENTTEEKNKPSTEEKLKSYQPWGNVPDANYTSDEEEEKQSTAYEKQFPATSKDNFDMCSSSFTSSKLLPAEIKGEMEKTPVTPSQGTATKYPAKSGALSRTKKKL

On to `COc1ccc(/C=C/c2nc3ccccc3n2C)cc1` [MLS000719304], for which it took 26.1 µM to reach a half-maximal effect (EC50).

In turn, `C=CC(=O)Nc1ccc(CN2C(=O)N(c3c(Cl)c(OC)cc(OC)c3Cl)Cc3cnc(NCCCCN(CC)CC)nc32)cc1` [N-[4-[[3-[2,6-bis(chloranyl)-3,5-dimethoxy-phenyl]-7-[4-(diethylamino)butylamino]-2-oxidanylidene-4H-pyrimido[4,5-d]pyrimidin-1-yl]methyl]phenyl]prop-2-enamide] gave an EC50 of 0.618 µM.

The molecule `Oc1ccc(/N=C/c2c(O)ccc3ccccc23)cc1` [(1Z)-1-[(4-hydroxyanilino)methylidene]-2-naphthalenone] showed a 50% effective concentration (EC50) of 2.84 µM.

Molecule `CCOc1ccc(-c2cc(CCCC(=O)NCCCOC)no2)cc1` [4-[5-(4-ethoxyphenyl)-1,2-oxazol-3-yl]-N-(3-methoxypropyl)butanamide] had an EC50 of more than 120 µM.

In turn, `N=c1c2c(-c3ccccc3)c(-c3ccccc3)oc2ncn1Cc1ccco1` [SMR000176070] registered an EC50 of more than 120 µM.

`Cc1ccc(C(=O)O/N=C(\N)c2ccccn2)c(Cl)c1` [MLS001206211]: the EC50 was found to be 32.2 µM.

As for `Cc1occc1C(=O)NN=Cc1ccc(N(C)C)cc1` [N-[[4-(dimethylamino)phenyl]methylideneamino]-2-methylfuran-3-carboxamide], the EC50 is more than 120 µM.

The molecule `CCOc1ccc(-c2ccc(SC)nn2)cc1` [3-(4-ethoxyphenyl)-6-(methylthio)pyridazine] displayed an EC50 of more than 120 µM.

As to `CCCn1c(NC(=O)c2cccc(S(=O)(=O)N3CCCC3)c2)nc2ccccc21` [MLS000057540], it took 0.769 µM to reach a half-maximal effect (EC50).

The molecule `N#C/C(=C/C=C/c1ccccc1)C(=O)Nc1ccccc1` [2-cyano-N,5-diphenyl-2,4-pentadienamide] had a 50% effective concentration (EC50) of more than 120 µM.

For the molecule `O=C1NCCCc2c1oc1ccc(O)cc21` [7-hydroxy-2,3,4,5-tetrahydro-[1]benzofuro[2,3-c]azepin-1-one], it took 3.71 µM to reach a half-maximal effect (EC50).

`Fc1ccc(-c2c[nH]cn2)cc1` [4-(4-fluorophenyl)-1H-imidazole] came in with a half-maximal effective concentration (EC50) of more than 120 µM.

The record behind these values is BindingDB's records for doi:10.7270/Q2B27SRF (Broad Institute, 2010).
